According to patent US6440401B1, “2-phenyl-benzimidazolesulfonic acids as UV-B filters” (Merck Patent Gesellschaft Mit Beschraenkter Haftung, priority 2000, dated 2002):

Test: UV absorption maximum
Format: physicochemical
Description: 108 parts of o-phenylenediamine are introduced into 500 parts of H2SO4 (>96%) and then 800 parts of oleum (65%) are added dropwise, the temperature being maintained at a maximum of 120° C. After 15 min, the mixture is cooled to 70° C. and 120 parts of benzoic acid are added. The mixture is heated for 2 h at 180° C. The mixture is slowly hydrolysed with 2 500 parts of water, the temperature being maintained below 10° C. The precipitate (crystals) is filtered off with suction, the crude product is suspended in 8 parts of water and dissolved with 32% sodium hydroxide solution at pH=7. The solution is stirred with activated carbon until colorless, and thereafter precipitation is induced using 96% H2SO4 by establishing a pH=1-2. 300 parts of 2-phenylbenzimidazole-4,6-disulfonic acid are obtained. The compound has an absorption maximum in the UV-B region at λmax=308 nm.

absorption maximum in the UV-B region, λmax: 308 nm
SMILES: O=S(=O)(O)c1cc(S(=O)(=O)O)c2[nH]c(-c3ccccc3)nc2c1 [2-phenylbenzimidazole-4,6-disulfonic acid]
